Earlier results as cited in patent US6511813B1, “Elongation factor P (EFP) and assays and antimicrobial treatments related to the same” (Pharmacia & Upjohn Company, priority 1999, dated 2003).

Tests used:
peptidyltransferase [1] = tested on: peptidyltransferase
peptidyltransferase [2] = tested on: peptidyltransferase; remark: listed apart in the source
[3] = tested on: fMet-tRNAfMet/ribosome translation complex

Compound | effect on efp reaction (efp) | effect on the peptide-bond synthesis which occurs in the absence of efp (peptidyltransferase [2]) | effect on formation of the fMet-tRNAfMet/ribosome translation complex [3] | also measured
CC[C@H]1OC(=O)[C@H](C)[C@@H](O[C@H]2C[C@@](C)(OC)[C@@H](O)[C@H](C)O2)[C@H](C)[C@@H](O[C@@H]2O[C@H](C)C[C@H](N(C)C)[C@H]2O)[C@](C)(O)C[C@@H](C)C(=O)[C@H](C)[C@@H](O)[C@]1(C)O [Erythromycin] | – | – | – | effect on the efp reaction (efp; at 5×10^−5): no apparent effect
CCC[C@@H]1C[C@@H](C(=O)N[C@@H]([C@H]2O[C@H](SC)[C@H](O)[C@@H](O)[C@H]2O)[C@@H](C)O)N(C)C1 [Lincomycin] | nullifies the ability of efp to stimulate synthesis of peptide bonds | – | – | effect on the puromycin reaction (peptidyltransferase [1]): inhibits; effect on the synthesis of polyphenylalanine (ribosome): marginal effects
[H]/N=C(/N)N[C@H]1[C@H](O)[C@@H](O)[C@H](O[C@@H]2O[C@@H](C)[C@](O)(C=O)[C@H]2O[C@@H]2O[C@@H](CO)[C@H](O)[C@@H](O)[C@@H]2NC)[C@@H](N/C(N)=N\[H])[C@@H]1O [Streptomycin] | – | – | – | inhibition of the efp-mediated reaction (efp; at 2×10^−5 M): potent inhibitor
C=C(NC(=O)C(=C)NC(=O)c1csc(C2=N[C@@H]3c4csc(n4)[C@H]4NC(=O)c5csc(n5)[C@H]([C@](C)(O)[C@@H](C)O)NC(=O)[C@H]5CSC(=N5)/C(=C/C)NC(=O)[C@H]([C@@H](C)O)NC(=O)c5csc(n5)[C@]3(CC2)NC(=O)[C@H](C)NC(=O)C(=C)NC(=O)[C@H](C)NC(=O)[C@H]([C@@H](C)CC)N[C@@H]2C=Cc3c([C@H](C)O)cc(nc3[C@H]2O)C(=O)O[C@@H]4C)n1)C(N)=O [thiostrepton] | inhibit only about 20% or have no effect | no effect | no effect | –
neomycin | inhibit only about 20% or have no effect | no effect | no effect | –
